Measured values as given in ChEMBL document CHEMBL1145164, “2-Acetylamino-3-[4-(2-acetylamino-2-carboxyethylsulfanylcarbonylamino)- phenylcarbamoylsulfanyl]propionic acid and its derivatives as a novel class of glutathione reductase inhibitors” (J Med Chem, 2005).

Tests used:
Glutathione reductase [1] = target: T1, Glutathione reductase (Saccharomyces cerevisiae S288c, UniProt P41921); assay: Inhibition of yeast glutathione reductase over 30 minutes pH 7.4 at 25 degree C
T1 sequence (P41921 whole entry): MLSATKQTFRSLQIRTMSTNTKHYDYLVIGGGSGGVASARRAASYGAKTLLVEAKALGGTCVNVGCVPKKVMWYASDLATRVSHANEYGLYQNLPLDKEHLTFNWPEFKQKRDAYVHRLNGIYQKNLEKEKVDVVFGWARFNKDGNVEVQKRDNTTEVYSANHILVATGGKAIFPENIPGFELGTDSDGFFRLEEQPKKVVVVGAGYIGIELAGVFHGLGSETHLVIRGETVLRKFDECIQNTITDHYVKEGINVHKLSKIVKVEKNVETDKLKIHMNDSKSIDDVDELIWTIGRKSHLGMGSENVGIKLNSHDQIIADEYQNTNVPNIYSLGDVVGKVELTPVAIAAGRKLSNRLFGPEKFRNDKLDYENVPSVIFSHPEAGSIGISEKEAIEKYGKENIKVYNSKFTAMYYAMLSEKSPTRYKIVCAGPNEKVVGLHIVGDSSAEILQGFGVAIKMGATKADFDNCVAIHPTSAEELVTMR

Glutathione reductase [2] = target: T1, Glutathione reductase; assay: Inhibition of yeast glutathione reductase for 30 minutes pH 7.4 at 25 degree C at 0.2 mM
Glutathione reductase [3] = target: T1, Glutathione reductase; assay: Inhibition of yeast glutathione reductase done for 30 minutes in pH 7.4 at 25 degree C with compound (0.2 mM)
[4] = target: T2, Glutathione S-transferase A1 (Homo sapiens) (UniProt P08263); assay: Inhibitory activity of compound against glutathione S-transferase; settings: concentration not given here
T2 sequence (whole entry): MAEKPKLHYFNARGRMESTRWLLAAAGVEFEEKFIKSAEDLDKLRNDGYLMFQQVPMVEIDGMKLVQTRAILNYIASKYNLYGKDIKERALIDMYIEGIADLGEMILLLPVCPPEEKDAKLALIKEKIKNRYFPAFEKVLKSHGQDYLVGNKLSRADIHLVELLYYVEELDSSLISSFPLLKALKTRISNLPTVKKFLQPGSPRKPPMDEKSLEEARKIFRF

[5] = target: T3, Glutathione reductase (Saccharomyces cerevisiae S288c) (UniProt P41921)
T3 sequence (whole entry): T1 sequence (P41921 whole entry)
Description: Kinact value for yeast glutathione reductase

Structure (SMILES)	IC50 (Glutathione reductase [1])	also measured
CC(=O)NC(CSC(=O)NCCCCCCNC(=O)SCC(NC(C)=O)C(=O)O)C(=O)O (stereo unspecified)	455 µM	–
CC(=O)NC(CSC(=O)NC1CCC(CC2CCC(NC(=O)SCC(NC(C)=O)C(=O)O)CC2)CC1)C(=O)O (stereo unspecified)	477 µM	–
CC(=O)NC(CSC(=O)Nc1ccc(Cc2ccc(NC(=O)SCC(NC(C)=O)C(=O)O)cc2)cc1)C(=O)O (stereo unspecified)	85 µM	–
O=NN(CCCl)C(=O)NCCCl [CARMUSTINE]	441 µM	–
CC(=O)NC(CSC(=O)Nc1ccc(NC(=O)SCC(NC(C)=O)C(=O)O)cc1)C(=O)O (stereo unspecified)	–	Ki (Glutathione reductase [2]): 88 µM; IC50 (Glutathione reductase [3]): 50 µM; inhibition [4]: 13%; Kinact [5]: 0.1 min⁻¹
CC(=O)NC(CSC(=O)Nc1cccc(NC(=O)SCC(NC(C)=O)C(=O)O)c1)C(=O)O (stereo unspecified)	149 µM	–
CC(=O)NC(CSC(=O)NCCCCNC(=O)SCC(NC(C)=O)C(=O)O)C(=O)O (stereo unspecified)	515 µM	–
CC(=O)NC(CSC(=O)NCc1ccc(NC(=O)SCC(NC(C)=O)C(=O)O)cc1)C(=O)O (stereo unspecified)	117 µM	–
